In the NIST ThermoML archive (doi:10.1016/j.jct.2019.02.019):
± gives the expanded uncertainty stated by the source.

Assay: xn = mol fraction of the nth substance listed
Conditions: 101 kPa, Liquid; for viscosity: Capillary tube (Ostwald / Ubbelohde) method; for mass density: Vibrating tube method

NCCO [2-aminoethan-1-ol] + CCO
Conditions	mass density, 293.15 K [kg/m3]	mass density, 303.15 K [kg/m3]	mass density, 313.15 K [kg/m3]	mass density, 323.15 K [kg/m3]	viscosity, 293.15 K [mPa·s]	viscosity, 303.15 K [mPa·s]	viscosity, 313.15 K [mPa·s]	viscosity, 323.15 K [mPa·s]
x1 = 0.1002	816.84 ± 1.5	808.87 ± 1.5	799.33 ± 1.5	791.69 ± 1.4	1.56 ± 0.07	1.27 ± 0.05	1.05 ± 0.04	0.87 ± 0.04
x1 = 0.1999	843.68 ± 1.4	834.94 ± 1.4	825.34 ± 1.4	817.35 ± 1.4	2.12 ± 0.09	1.68 ± 0.07	1.36 ± 0.06	1.11 ± 0.05
x1 = 0.3002	868.92 ± 1.4	860.42 ± 1.4	850.66 ± 1.4	842.49 ± 1.4	2.89 ± 0.12	2.23 ± 0.09	1.77 ± 0.07	1.42 ± 0.06
x1 = 0.4004	893.15 ± 1.4	884.54 ± 1.4	874.69 ± 1.4	866.58 ± 1.4	3.96 ± 0.17	2.98 ± 0.13	2.29 ± 0.1	1.8 ± 0.08
x1 = 0.5	916.18 ± 1.4	907.59 ± 1.4	897.82 ± 1.4	889.61 ± 1.4	5.44 ± 0.23	3.96 ± 0.17	2.95 ± 0.12	2.28 ± 0.1
x1 = 0.5998	938.02 ± 1.3	929.38 ± 1.3	919.84 ± 1.3	911.88 ± 1.3	7.45 ± 0.32	5.23 ± 0.22	3.8 ± 0.16	2.87 ± 0.12
x1 = 0.7	959.13 ± 1.3	950.81 ± 1.3	941.56 ± 1.3	933.03 ± 1.3	10.19 ± 0.43	6.92 ± 0.29	4.87 ± 0.2	3.6 ± 0.15
x1 = 0.7996	978.96 ± 1.3	970.81 ± 1.3	961.95 ± 1.3	953.82 ± 1.3	13.74 ± 0.58	9.05 ± 0.38	6.17 ± 0.26	4.48 ± 0.19
x1 = 0.8994	998.41 ± 1.3	989.98 ± 1.3	981.44 ± 1.3	973.33 ± 1.3	18.22 ± 0.76	11.74 ± 0.49	7.74 ± 0.32	5.48 ± 0.23
x1 = 1	1016.3 ± 1	1008.02 ± 1	999.98 ± 1	991.97 ± 1	23.4 ± 0.95	14.71 ± 0.6	9.77 ± 0.4	6.83 ± 0.28

CN(CCO)CCO [N-methyldiethanolamine] + NCCO
Conditions	mass density, 293.15 K [kg/m3]	mass density, 303.15 K [kg/m3]	mass density, 313.15 K [kg/m3]	mass density, 323.15 K [kg/m3]	viscosity, 293.15 K [mPa·s]	viscosity, 303.15 K [mPa·s]	viscosity, 313.15 K [mPa·s]	viscosity, 323.15 K [mPa·s]
x1 = 0.1001	1021.71 ± 1	1013.23 ± 1	1005.13 ± 1	997.1 ± 1	32.9 ± 1.4	19.84 ± 0.84	12.83 ± 0.54	8.4 ± 0.35
x1 = 0.2006	1025.79 ± 1	1017.39 ± 1	1009.3 ± 1	1001.26 ± 1	43.27 ± 1.8	25.18 ± 1.1	15.97 ± 0.66	10.48 ± 0.44
x1 = 0.3	1029.07 ± 1	1020.72 ± 1	1012.66 ± 1	1004.69 ± 1	52.78 ± 2.2	30.53 ± 1.3	18.92 ± 0.78	12.49 ± 0.52
x1 = 0.3998	1031.69 ± 1	1023.42 ± 1	1015.36 ± 1	1007.45 ± 1	62.64 ± 2.6	35.8 ± 1.5	21.86 ± 0.9	14.3 ± 0.59
x1 = 0.4994	1033.82 ± 1	1025.62 ± 1	1017.61 ± 1	1009.72 ± 1	71.4 ± 2.9	40.6 ± 1.7	24.53 ± 1	15.83 ± 0.65
x1 = 0.5997	1035.58 ± 1	1027.46 ± 1	1019.48 ± 1	1011.68 ± 1	79.47 ± 3.3	45.11 ± 1.9	26.97 ± 1.1	17.35 ± 0.71
x1 = 0.6977	1037.09 ± 1	1029.04 ± 1	1021.11 ± 1	1013.34 ± 1	86.28 ± 3.6	48.61 ± 2	29.05 ± 1.2	18.6 ± 0.76
x1 = 0.7996	1038.43 ± 1	1030.43 ± 1	1022.52 ± 1	1014.79 ± 1	92.9 ± 3.9	52.06 ± 2.1	30.87 ± 1.3	19.64 ± 0.8
x1 = 0.8995	1039.57 ± 1	1031.61 ± 1	1023.72 ± 1	1016.04 ± 1	98.21 ± 4.1	54.8 ± 2.2	32.88 ± 1.3	20.56 ± 0.84
x1 = 1	1040.5 ± 1	1032.6 ± 1	1024.76 ± 1	1017.12 ± 1	103.04 ± 4.3	57.28 ± 2.3	33.94 ± 1.4	21.31 ± 0.87

CN(CCO)CCO [N-methyldiethanolamine] + CCO
Conditions	mass density, 293.15 K [kg/m3]	mass density, 303.15 K [kg/m3]	mass density, 313.15 K [kg/m3]	mass density, 323.15 K [kg/m3]	viscosity, 293.15 K [mPa·s]	viscosity, 303.15 K [mPa·s]	viscosity, 313.15 K [mPa·s]	viscosity, 323.15 K [mPa·s]
x1 = 0.1003	838.89 ± 2.1	830.03 ± 2	820.48 ± 2	812.93 ± 2	1.95 ± 0.09	1.54 ± 0.07	1.27 ± 0.06	1.03 ± 0.05
x1 = 0.2001	879.56 ± 1.8	869.79 ± 1.8	860.28 ± 1.8	852.57 ± 1.8	3.25 ± 0.15	2.45 ± 0.11	1.94 ± 0.09	1.52 ± 0.07
x1 = 0.3001	913.83 ± 1.6	903.04 ± 1.6	893.56 ± 1.6	885.65 ± 1.6	5.36 ± 0.24	3.88 ± 0.17	2.95 ± 0.13	2.25 ± 0.1
x1 = 0.3998	941.42 ± 1.4	930.67 ± 1.4	921.43 ± 1.4	913.45 ± 1.4	8.77 ± 0.4	6.08 ± 0.27	4.5 ± 0.2	3.32 ± 0.14
x1 = 0.5	964.94 ± 1.3	954.51 ± 1.3	945.44 ± 1.3	937.39 ± 1.3	14.09 ± 0.63	9.41 ± 0.41	6.64 ± 0.29	4.79 ± 0.21
x1 = 0.5999	984.81 ± 1.2	974.63 ± 1.3	965.86 ± 1.3	957.92 ± 1.3	21.94 ± 0.97	14.14 ± 0.62	9.68 ± 0.42	6.79 ± 0.29
x1 = 0.7	1001.91 ± 1.2	992.31 ± 1.2	983.56 ± 1.2	975.64 ± 1.2	33.37 ± 1.5	20.8 ± 0.9	13.69 ± 0.59	9.4 ± 0.4
x1 = 0.8001	1016.76 ± 1.2	1007.51 ± 1.2	999.13 ± 1.2	991.3 ± 1.2	49.36 ± 2.2	29.56 ± 1.3	18.85 ± 0.8	12.44 ± 0.53
x1 = 0.9005	1029.58 ± 1.1	1020.96 ± 1.1	1012.93 ± 1.1	1005.16 ± 1.1	72.94 ± 3.2	41.84 ± 1.8	25.38 ± 1.1	16.52 ± 0.7
x1 = 1	1040.5 ± 1	1032.6 ± 1	1024.76 ± 1	1017.12 ± 1	103.04 ± 4.3	57.28 ± 2.3	33.94 ± 1.4	21.31 ± 0.87
